Results on one compound are retold here after patent US20180064691A1, “Antibacterial compositions” (WOCKHARDT LIMITED, priority 2016, published 2018).

Holding throughout (test): quantitative drug diffusion assay (zone of inhibition, CLSI)
Common to all, as to assay type: cell-based

One test concerns E. coli B-89. Further details: key: (R): Resistant; (I): Intermediate; (S): Sensitive (Interpretation as per CLSI recommendations, 2010). Particulars: CLSI recommendations, 2010. An excerpt:
(§1) Antibacterial activity of cefepime combination with tazobactam against various bacterial strains, including those bacteria that are known to product one or more beta-lactamase, was investigated in quantitative drug diffusion assay performed as per CLSI recommendations (Clinical and Laboratory Standards Institute (CLSI), performance Standards for Antimicrobial Susceptibility Testing, 20th Informational Supplement, M 100-S20, Volume 30, No. 1, 2010).
(§2) In a typical study, overnight grown bacterial cultures after appropriate dilution were seed inoculated in the molten, cooled agar media and plates poured. Antibacterial agents containing 6 mm diameter discs were placed on the top of the agar surface. Zone of inhibition based observation was performed after 16 to 18 hours of incubation at 35±2° C. in ambient air. These assays are routinely used in determining possibility of treating a particular infection using given antibacterial agent or a composition. In general, zone inhibition values in the sensitive (S) range indicate that the strain is susceptible to that antibacterial agent or composition. It is generally assumed that the antibacterial agent or the combination under consideration would not be effective in treating the infection, if the zone inhibition values are in the resistant (R) range.

The next test relates to E. coli 7MP. On the set-up: key: (R): Resistant; (I): Intermediate; (S): Sensitive (Interpretation as per CLSI recommendations, 2010). Particulars: CLSI recommendations, 2010.
Text: as §1, §2

In the next test the test system is E. coli M50. Further details: key: (R): Resistant; (I): Intermediate; (S): Sensitive (Interpretation as per CLSI recommendations, 2010). The note with it: CLSI recommendations, 2010.
Text: as §1, §2

The next test relates to E. coli B-123. Further details: key: (R): Resistant; (I): Intermediate; (S): Sensitive (Interpretation as per CLSI recommendations, 2010). Particulars: CLSI recommendations, 2010.
Text: as §1, §2

The subject of the next test is E. coli S-112. Further details: key: (R): Resistant; (I): Intermediate; (S): Sensitive (Interpretation as per CLSI recommendations, 2010). Particulars: CLSI recommendations, 2010.
Text: as §1, §2

The test system of another test is E. coli M-138. Further details: key to CLSI susceptibility interpretation: (R): Resistant; (I): Intermediate; (S): Sensitive (Interpretation as per CLSI recommendations, 2010).
Text: as §1, §2

With `CO/N=C(\C(=O)N[C@@H]1C(=O)N2C(C(=O)[O-])=C(C[N+]3(C)CCCC3)CS[C@H]12)c1csc(N)n1` [Cefepime, cefepime], the CLSI susceptibility interpretation entry with E. coli B-89 is listed as “(R)”; in the test with E. coli 7MP, “(I)”; in the test on E. coli M50, “(R)”; with E. coli B-123, “(R)”; in the test with E. coli S-112, “(I)”; in the test on E. coli M-138 (CLSI recommendations, 2010), “(R)”. The “Zone of Inhibition” value in the test on E. coli M-138 (6 mm discs, 16 to 18 hours at 35±2° C.) is on record as “Nil”.
